Earlier results as cited in PMC12860872, “Preclinical evaluation of DOTAGA.Glu.(FAPI)2 and DO3A.Glu.(FAPI)2 as theranostics with human dosimetry extrapolation to lutetium-177 and terbium-161 analogs” (European Journal of Nuclear Medicine and Molecular Imaging, 2025).

Assays:
DPP8 = tested on: DPP8; set-up: method as in Martin et al. 2023 (15); conditions: ref Martin et al. 2023 (15); cited from earlier work
FAP = tested on: FAP; set-up: method as in Martin et al. 2023 (15); conditions: enzymatic assay; ref Martin et al. 2023 (15); cited from earlier work

N#C[C@@H]1CC(F)(F)CN1C(=O)CNC(=O)c1ccnc2ccccc12 [UAMC-1110, reference compound]
IC50 (DPP8): > 10000 nM
IC50 (FAP): 0.43 ± 0.02 nM
